Data from patent publication US20070098900A1, “Media providing non-contacting formation of high contrast marks and method of using same, composition for forming a laser-markable coating, a laser-markable material and process of forming a marking” (FUJI HUNT PHOTOGRAPHIC CHEMICALS, INC., priority 2004, published 2007).

assay: Solubility of electron donor dye precursors in ethyl acetate; assay type: physicochemical
Source text: For reference, the following Table 1 lists electron donor dye precursor compounds, and includes the corresponding solubility in ethyl acetate, which are used in the following examples.

Going from `CCCCCCOc1ccc2c(c1)Oc1cc(OCCCCCC)ccc1C21OC(c2cccs2)=Nc2ccccc21` [Sample D-5] to `CCN(CC)c1ccc2c(c1)Oc1cc(C)ccc1C21OC(=O)c2ccccc21` [Sample D-2], the “Solubility in ethyl acetate” value falls from 20 g/100 grams to 5 g/100 grams.

For `CCN(CC)c1ccc2c(c1)Oc1cc(C)c(Nc3ccccc3)cc1C21OC(=O)c2ccccc21` [Sample D-3], the “Solubility in ethyl acetate” value was 4 g/100 grams.
